“Also recorded” adds a separate entry of the source.
How the values were obtained:
cryoinjured TA muscle [1] = test: Muscle regeneration after cryoinjury: regenerative index, myogenic proteins, myofiber diameter, grip strength after bolus injection; assay type: in vivo, mice; details: for regenerative index (fraction of nuclei in embryonic MHC-positive myofibers): single bolus, combinations: prostaglandin at day 0, rosiglitazone at day 1, relative to DMSO vehicle; for grip strength: 14 days post-injury, 6-week old mice, prostaglandin at 0 h, rosiglitazone at 24 h post-injury; for hypertrophic growth (myofiber cross-sectional Feret diameters): prostaglandin at day 0, rosiglitazone at day 1
Description: (§1) Some tissues were flash frozen for cryosectioning.

[2] = tested on: muscle stem cells and myoblasts in gastrocnemius, quadriceps and TA muscle; test: Stem cell and myoblast activation in skeletal muscles without injury, immunofluorescence 2 days after single bolus; assay type: in vivo, mice; details: for fraction of proliferative muscle stem cells (Pax7-positive Ki67-positive cells) / total pool of muscle stem cells (Pax7-positive cells) / total pool of proliferative cells (Ki67-positive cells): without injury
Description: as §1

primary human myoblasts = test: Proliferation of primary human myoblasts under PGI2 treatment; assay type: cell-based
cryoinjured TA muscle [3] = test: PGI2 bolus in cryoinjured TA muscle: cAMP, PPARs, H3K9ac and myogenic markers; assay type: in vivo, mice
[4] = tested on: fibrosis in TA muscle, liver, skin and heart of 2-year old mice; test: Aging-induced fibrosis and fibrotic precursors in 2-year old mice after daily injection; assay type: in vivo; details: for relative changes in the % fibrotic area (Masson trichrome staining) / relative changes in the percentage fraction of fibrotic precursors (PGDFRA-positive and Ki67-positive): 7 days post-injection, 2-year old mice; for relative changes in the % fibrotic area (Masson trichrome staining) / relative changes in the percentage fraction of fibrotic precursors (PGDFRA-positive and Ki67-positive) / aging-induced fibrosis (fibrotic area) in multiple non-skeletal muscle tissues: daily injection
Description: as §1

[5] = tested on: pure primary human myoblasts; test: Pure primary human myoblasts treated with PGI2-related drugs (Western blot, qRT-PCR); assay type: cell-based; details: for H3K9ac and MyoD protein (Western blot) / PPARG protein levels (Western blot): pure primary human myoblasts, relative to DMSO
[6] = tested on: Ki67-positive proliferative progenitor cells in liver, heart, skin, hair follicles; test: Ki67+ progenitor cells in non-skeletal muscle tissues without injury, 2 days after intra-peritoneal treprostinil; assay type: in vivo, mice
Description: as §1

[7] = gastrocnemius muscle, 2 days after intramuscular single bolus, PPARD drugs
[8] = TA muscle 1-2 days post-cryoinjury
[9] = injured TA muscle, single bolus
[10] = TA muscle, 2 days after intramuscular single bolus, with or without HGF
[11] = TA muscle, 2 days after intramuscular single bolus
[12] = liver, skin and heart, 2-year-old mice
[13] = differentiating myoblasts (24 h post-differentiation)
[14] = gastrocnemius muscle, 2 days after intra-peritoneal single bolus
[15] = gastrocnemius muscle, 2 days after intraperitoneal single bolus, with or without fenofibrate or WY-14643
[16] = quadriceps muscles, 2 days after intra-peritoneal single bolus

Cc1cc(SCc2sc(-c3ccc(C(F)(F)F)c(F)c3)nc2C)ccc1OCC(=O)O [GW0742]
regenerative index (fraction of nuclei in embryonic MHC-positive myofibers) (cryoinjured TA muscle [1]; TA muscle 6.5 days post-injury): significantly decrease muscle regeneration | percentage fraction of proliferative muscle stem cells (Pax7-positive Ki67-positive cells) [2, 7]: surprisingly decreased | percentage fraction of proliferative myoblasts (MyoD-positive Ki67-positive cells) [2, 7]: no effect

O=C(NCCS(=O)(=O)c1ccc(C(F)(F)F)cn1)c1ccc(Cl)cc1 [GSK3787]
regenerative index (fraction of nuclei in embryonic MHC-positive myofibers) (cryoinjured TA muscle [1]; TA muscle 6.5 days post-injury): not | percentage fraction of proliferative muscle stem cells (Pax7-positive Ki67-positive cells) [2, 7]: no effect | percentage fraction of proliferative myoblasts (MyoD-positive Ki67-positive cells) [2, 7]: slightly increased

CCCCC[C@H](O)/C=C/[C@@H]1[C@@H](CCCCCCC(=O)O)[C@@H](O)C[C@H]1O [PGF1a]
regenerative index (fraction of nuclei in embryonic MHC-positive myofibers) (cryoinjured TA muscle [1]; TA muscle 6.5 days post-injury): significantly decrease muscle regeneration; also recorded: slightly decreased regeneration

CCCCC[C@@H](/C=C/[C@H]1[C@H](CCCCCCC(=O)O)[C@H]2C[C@@H]1OO2)OO [PGG1]
regenerative index (fraction of nuclei in embryonic MHC-positive myofibers) (cryoinjured TA muscle [1]; TA muscle 6.5 days post-injury): no significant effect; also recorded: did not cause significant changes

CCCCC[C@H](O)/C=C/[C@@H]1[C@H]2C/C(=C/CCCC(=O)O)O[C@H]2C[C@H]1O [PGI2, prostacyclin]
proliferation (primary human myoblasts; early passage primary human myoblasts (passage 12)): significantly increased proliferation; also recorded: significantly increase the proliferation rate | proliferation (primary human myoblasts; late passage primary human myoblasts (passage 18)): significantly increased proliferation; also recorded: significantly increase the proliferation rate | H3K9ac levels (Western blot) (cryoinjured TA muscle [3]; [8]): increased protein acetylation and especially histone acetylation | PPARA protein (Western blot) (cryoinjured TA muscle [3]; [8]): suppresses the increase in PPARA; also recorded: suppressed PPARA protein | PPARD protein (Western blot) (cryoinjured TA muscle [3]; [8]): exerts little effect on PPARD | PPARG protein (Western blot) (cryoinjured TA muscle [3]; [8]): accelerates the increase in PPARG; also recorded: increased PPARG protein | percentage fraction of PPARG-positive cells (immunofluorescence) (cryoinjured TA muscle [3]; TA muscle 1-2 days post-freeze injury): significantly increase PPARG-positive cells | abundance of cyclic adenosine monophosphate (cAMP), MALDI-MSI (cryoinjured TA muscle [3]; TA muscle 6 days after single bolus): significantly decreased | committed myoblasts (MyoG-positive Ki67-positive cells, immunofluorescence) (cryoinjured TA muscle [3]; TA muscle over 6 days post-injury (days 2-4), single bolus at 0 h): significantly increase committed myoblasts; also recorded: significantly increased | PPARA and PPARD mRNA expression (qRT-PCR) (cryoinjured TA muscle [3]; [9]): not PPARA nor PPARD | PPARG mRNA expression (qRT-PCR) (cryoinjured TA muscle [3]; [9]): significantly increase PPARG mRNA expression | Pax7, MyoD, MyoG, Myh3 mRNA expression (qRT-PCR) (cryoinjured TA muscle [3]; [9]): significantly increased | PPARA, PPARD, PPARG, H3K9ac, PAX7, MyoD, MyoG and Myh3 protein expression (Western blot) (cryoinjured TA muscle [3]; non-injured and injured region of TA muscle, 6 days post-cryoinjury): can increase; also recorded: significantly increased all myogenesis markers | grip strength (cryoinjured TA muscle [1]): partially restore grip strength | hypertrophic growth (myofiber cross-sectional Feret diameters) (cryoinjured TA muscle [1]; TA muscle 6.5 days post-injury): increase hypertrophic growth | regenerative index (fraction of nuclei in embryonic MHC-positive myofibers) (cryoinjured TA muscle [1]; TA muscle 6.5 days post-injury): significantly increase muscle regeneration; also recorded: significantly promoted muscle regeneration | optimal PGI2 concentration for muscle regeneration (regenerative index saturated and peaked) (cryoinjured TA muscle [1]; titration of single bolus, TA muscle 6.5 days post-injury): 6.5 to 13 mM | percentage fraction of proliferative muscle stem cells (Pax7-positive Ki67-positive cells) [2, 10]: significantly increased | percentage fraction of proliferative myoblasts (MyoD-positive Ki67-positive cells) [2, 10]: significantly decreased | fraction of proliferative muscle stem cells (Pax7-positive Ki67-positive cells) [2, 11]: significantly increased | relative changes in the % fibrotic area (Masson trichrome staining) ([4]; TA muscle): partially reverse the aged muscle fibrosis; also recorded: significant reversal of aging-induced fibrosis | relative changes in the percentage fraction of fibrotic precursors (PGDFRA-positive and Ki67-positive) ([4]; TA muscle): partially suppress the aged muscle fibrotic precursors | relative changes in the % fibrotic area (Masson trichrome staining) ([4]; heart tissue): partially reverse the aged cardiac fibrosis | relative changes in the percentage fraction of fibrotic precursors (PGDFRA-positive and Ki67-positive) ([4]; heart tissue): partially suppress the aged cardiac fibrotic precursors | relative changes in the % fibrotic area (Masson trichrome staining) ([4]; liver tissue): partially reverse the aged liver fibrosis | relative changes in the percentage fraction of fibrotic precursors (PGDFRA-positive and Ki67-positive) ([4]; liver tissue): partially suppress the aged liver fibrotic precursors | aging-induced fibrosis (fibrotic area) in multiple non-skeletal muscle tissues [4, 12]: significant reversal of aging-induced fibrosis | relative changes in the % fibrotic area (Masson trichrome staining) ([4]; skin tissue): partially reverse the aged skin fibrosis | relative changes in the percentage fraction of fibrotic precursors (PGDFRA-positive and Ki67-positive) ([4]; skin tissue): partially suppress the aged skin fibrotic precursors | mRNA markers of myoblasts including MyoD1 and Pax3 [5, 13]: increased | mRNA markers of myogenic differentiation including Myog, Myhc, Myh2, Myh3, Myh7, Myh8, Acta1 [5, 13]: sufficient to block committed myocytes from undergoing terminal differentiation; also recorded: decreased | mRNA markers of myogenic differentiation including Myhc, Myh3, Myh8, and Acta1 ([5]; proliferative myoblasts (24 h pre-differentiation)): sufficient to promote proliferative myoblasts to undergo differentiation; also recorded: increased | H3K9ac and MyoD protein (Western blot) [5]: increases; also recorded: followed the same pattern of regulation as PPARG | PPARG protein levels (Western blot) [5]: increases PPARG protein; also recorded: stabilize and/or upregulate

HGF: hepatocyte growth factor
percentage fraction of proliferative muscle stem cells (Pax7-positive Ki67-positive cells) [2, 10]: significantly increased; also recorded: could increase | percentage fraction of proliferative myoblasts (MyoD-positive Ki67-positive cells) [2, 10]: slightly increased; also recorded: could increase

CCCCC[C@H](O)CC[C@@H]1[C@H]2Cc3cccc(OCC(=O)O)c3C[C@H]2C[C@H]1O [treprostinil]
grip strength (cryoinjured TA muscle [1]): partially restore grip strength | Pax7, MyoD, MyoG and Myh3 protein expression (Western blot densitometry) (cryoinjured TA muscle [1]; TA muscle 6 days post-cryoinjury, treprostinil at day 0, rosiglitazone at day 1 in the combination): significantly increase; also recorded: could also increase | hypertrophic growth (myofiber cross-sectional Feret diameters) (cryoinjured TA muscle [1]; TA muscle 6.5 days post-injury): increase hypertrophic growth | regenerative index (fraction of nuclei in embryonic MHC-positive myofibers) (cryoinjured TA muscle [1]; TA muscle 6.5 days post-injury): significantly increase muscle regeneration | percentage fraction of proliferative muscle stem cells (Pax7-positive Ki67-positive cells) [2, 10]: significantly increased; also recorded: could increase | percentage fraction of proliferative myoblasts (MyoD-positive Ki67-positive cells) [2, 10]: slightly increased; also recorded: could increase | fraction of proliferative muscle stem cells (Pax7-positive Ki67-positive cells) [2, 11]: significantly increased | fraction of proliferative muscle stem cells (Pax7-positive Ki67-positive cells) [2, 14]: significantly increased | total pool of muscle stem cells (Pax7-positive cells) [2, 14]: significantly increased | total pool of proliferative cells (Ki67-positive cells) [2, 14]: significantly increased | percentage fraction of proliferative muscle stem cells (Pax7-positive Ki67-positive cells) [2, 7]: significantly increased | percentage fraction of proliferative myoblasts (MyoD-positive Ki67-positive cells) [2, 7]: slightly increased | percentage fraction of myoblasts (MyoD-positive cells) [2, 15]: significantly increased | percentage fraction of proliferative myoblasts (MyoD-positive Ki67-positive cells) [2, 15]: significantly increased | fraction of proliferative muscle stem cells (Pax7-positive Ki67-positive cells) [2, 16]: significantly increased | total pool of muscle stem cells (Pax7-positive cells) [2, 16]: significantly increased | total pool of proliferative cells (Ki67-positive cells) [2, 16]: significantly increased | total pool of proliferative progenitor cells (Ki67-positive cells) ([6]; endoderm-derived liver tissue): significantly increased | total pool of proliferative progenitor cells (Ki67-positive cells) ([6]; endoderm-derived liver tissue, listed as Treprostinil): increase the total pool of Ki67+ progenitor cells | total pool of proliferative progenitor cells (Ki67-positive cells) ([6]; mesoderm-derived heart and cardiac muscle tissue): significantly increased; also recorded: increase the total pool of Ki67+ progenitor cells | total pool of proliferative progenitor cells (Ki67-positive cells) ([6]; neuroectoderm-derived skin tissue): significantly increased; also recorded: increase | total pool of proliferative progenitor cells (Ki67-positive cells) ([6]; skin tissue's telogen hair follicles): significantly increased; also recorded: increase | relative changes in the % fibrotic area (Masson trichrome staining) ([4]; TA muscle): partially reverse the aged muscle fibrosis; also recorded: significant reversal of aging-induced fibrosis | relative changes in the percentage fraction of fibrotic precursors (PGDFRA-positive and Ki67-positive) ([4]; TA muscle): partially suppress the aged muscle fibrotic precursors | relative changes in the % fibrotic area (Masson trichrome staining) ([4]; heart tissue): partially reverse the aged cardiac fibrosis | relative changes in the percentage fraction of fibrotic precursors (PGDFRA-positive and Ki67-positive) ([4]; heart tissue): partially suppress the aged cardiac fibrotic precursors | relative changes in the % fibrotic area (Masson trichrome staining) ([4]; liver tissue): partially reverse the aged liver fibrosis | relative changes in the percentage fraction of fibrotic precursors (PGDFRA-positive and Ki67-positive) ([4]; liver tissue): partially suppress the aged liver fibrotic precursors | PDGFRA+ Ki67+ fibrotic precursor numbers in multiple non-skeletal muscle tissues [4, 12]: suppress | aging-induced fibrosis (fibrotic area) in multiple non-skeletal muscle tissues [4, 12]: significant reversal of aging-induced fibrosis | relative changes in the % fibrotic area (Masson trichrome staining) ([4]; skin tissue): partially reverse the aged skin fibrosis | relative changes in the percentage fraction of fibrotic precursors (PGDFRA-positive and Ki67-positive) ([4]; skin tissue): partially suppress the aged skin fibrotic precursors | H3K9ac and MyoD protein (Western blot) [5]: followed the same pattern of regulation as PPARG | PPARG protein levels (Western blot) [5]: stabilize and/or upregulate

CC(C)OC(=O)C(C)(C)Oc1ccc(C(=O)c2ccc(Cl)cc2)cc1 [fenofibrate]
percentage fraction of myoblasts (MyoD-positive cells) [2, 15]: no effect | percentage fraction of proliferative myoblasts (MyoD-positive Ki67-positive cells) [2, 15]: no effect

CCCCC[C@H](O)/C=C/[C@H]1C(=O)C[C@H](O)[C@@H]1C/C=C\CCCC(=O)O [PGD2, prostaglandin D2]
regenerative index (fraction of nuclei in embryonic MHC-positive myofibers) (cryoinjured TA muscle [1]; TA muscle 6.5 days post-injury): slightly but significantly increase muscle regeneration; also recorded: slightly increased regeneration

Source: patent US20220362262A1, “METHODS AND COMPOSITIONS FOR TISSUE REGENERATION” (Institute of Zoology, Chinese Academy of Sciences, priority 2019, published 2022)
